Laboratory results reported in patent US20230277534A1 (Plexxikon Inc., priority 2011, published 2023).

Columns and labels:
[1] = tested on: COLO205 colon adenocarcinoma cells (B-Raf V600E mutation); assay: COLO205 cell growth inhibition (ATPlite); type: cell-based; details: Homo sapiens, COLO 205, 72 h, 3 days
Experimental: Compounds are assessed in a variety of cell based assays.
On day 1, cells are counted, then centrifuged in a conical tube for 5 minutes at 1000 rpm.
On day 2, compound at a maximum concentration of 5 mM is serially diluted 1:3 (e.g. 10 μL with 30 μL dimethyl sulfoxide) for a total of 8 point titration with DMSO as a control. A 1 μL aliquot of each dilution point and control is added to 249 μL growth media and 50 μL is added to a well containing cells, providing 10 μM compound at the maximum concentration point. The cells are incubated for 3 days at 37° C. in 5% CO2.
ATPlite is added 25 μL to each well, shake for 2 minutes, and the cells are incubated at room temperature for 10 minutes, then luminescence is read on Safire reader. The measured luminescence correlates directly with cell number, such that the reading as a function of compound concentration is used to determine the IC50 value.

B-Raf V600E = B-Raf V600E (Homo sapiens (Human), UniProt P15056, V600E); assay: B-Raf V600E kinase biochemical activity assay (AlphaScreen, biotin-MEK1 substrate); details: 100 μM ATP
B-Raf V600E, sequence (P15056 whole entry V600E): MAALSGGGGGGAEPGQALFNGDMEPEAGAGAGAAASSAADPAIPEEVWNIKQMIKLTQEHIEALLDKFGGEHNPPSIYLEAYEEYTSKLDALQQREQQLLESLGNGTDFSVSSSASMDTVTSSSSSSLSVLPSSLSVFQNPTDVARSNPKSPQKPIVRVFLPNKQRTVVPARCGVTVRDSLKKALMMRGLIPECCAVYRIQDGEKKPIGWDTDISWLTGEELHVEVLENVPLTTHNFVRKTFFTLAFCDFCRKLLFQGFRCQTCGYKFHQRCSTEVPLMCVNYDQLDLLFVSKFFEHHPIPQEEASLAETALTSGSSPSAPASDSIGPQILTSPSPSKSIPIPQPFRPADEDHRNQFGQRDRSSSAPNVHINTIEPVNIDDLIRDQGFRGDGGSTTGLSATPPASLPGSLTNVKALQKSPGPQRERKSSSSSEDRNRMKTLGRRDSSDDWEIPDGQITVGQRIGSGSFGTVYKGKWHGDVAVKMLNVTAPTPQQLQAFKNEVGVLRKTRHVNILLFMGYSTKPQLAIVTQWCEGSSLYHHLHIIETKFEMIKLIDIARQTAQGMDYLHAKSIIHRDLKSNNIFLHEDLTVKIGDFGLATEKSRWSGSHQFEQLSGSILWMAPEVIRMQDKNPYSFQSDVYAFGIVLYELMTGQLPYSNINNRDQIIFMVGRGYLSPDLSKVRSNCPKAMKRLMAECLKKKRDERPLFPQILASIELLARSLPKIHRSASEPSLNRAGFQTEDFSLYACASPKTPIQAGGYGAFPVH
Method in brief: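 IC50 was derived from AlphaScreen signal (anti-phospho-MEK1/2 antibody with streptavidin donor and Protein A acceptor beads, 3 h) across 8 compound concentrations. The kinase step ran 45 min at room temperature: 0.1 ng B-Raf V600E, 100 nM biotin-MEK1, 100 μM final ATP, pH 7.0 HEPES with MgCl2/MnCl2.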

SMILES | IC50 [1] | IC50 (B-Raf V600E)
O=C(c1c(F)ccc(NS(=O)(=O)N2CCCC2)c1F)c1c[nH]c2ncc(-c3cnc(C4CC4)nc3)cc12 [Compound P-0241, N-[3-[5-(2-cyclopropylpyrimidin-5-yl)-1H-pyrrolo[2,3-b]pyridine-3-carbonyl]-2,4-difluoro-phenyl]pyrrolidine-1-sulfonamide] | < 1 µM | < 0.1 µM
CCN(C)S(=O)(=O)Nc1ccc(F)c(C(=O)c2c[nH]c3ncc(-c4cnc(N5CCC5)nc4)cc23)c1F [Compound P-0277, 5-[2-(azetidin-1-yl)pyrimidin-5-yl]-3-[3-[[ethyl(methyl)sulfamoyl]amino]-2,6-difluoro-benzoyl]-1H-pyrrolo[2,3-b]pyridine] | < 1 µM | > 0.1 µM
COCCN(C)S(=O)(=O)Nc1cccc(C(=O)c2c[nH]c3ncc(-c4ccc(C5(C#N)CC5)cc4)cc23)c1F [Compound P-0080, 5-[4-(1-cyanocyclopropyl)phenyl]-3-[2-fluoro-3-[[2-methoxyethyl(methyl)sulfamoyl]amino]benzoyl]-1H-pyrrolo[2,3-b]pyridine] | > 1 µM | < 0.1 µM
CN(C)c1ncc(-c2cnc3[nH]cc(C(=O)c4cccc(NS(=O)(=O)N(C)C)c4F)c3c2)cn1 [Compound P-0106, 5-[2-(dimethylamino)pyrimidin-5-yl]-3-[3-(dimethylsulfamoylamino)-2-fluoro-benzoyl]-1H-pyrrolo[2,3-b]pyridine] | < 1 µM | < 0.1 µM
Cc1ncc(-c2cnc3[nH]cc(C(=O)c4cccc(NS(=O)(=O)N(C)CC5CC5)c4F)c3c2)cn1 [Compound P-0112, 3-[3-[[cyclopropylmethyl(methyl)sulfamoyl]amino]-2-fluoro-benzoyl]-5-(2-methylpyrimidin-5-yl)-1H-pyrrolo[2,3-b]pyridine] | < 1 µM | < 0.1 µM
CCC(C)S(=O)(=O)Nc1cccc(C(=O)c2c[nH]c3ncc(-c4ccc(N(C)C)nc4)cc23)c1F (stereo not shown) [Compound P-0230, N-[3-[5-[6-(dimethylamino)-3-pyridyl]-1H-pyrrolo[2,3-b]pyridine-3-carbonyl]-2-fluoro-phenyl]butane-2-sulfonamide] | < 1 µM | < 0.1 µM
O=C(c1cccc(NS(=O)(=O)N2CCCC2)c1F)c1c[nH]c2ncc(-c3cnc(N4CCOCC4)nc3)cc12 [Compound P-0235, N-[2-fluoro-3-[5-(2-morpholinopyrimidin-5-yl)-1H-pyrrolo[2,3-b]pyridine-3-carbonyl]phenyl]pyrrolidine-1-sulfonamide] | < 1 µM | < 0.1 µM
CCC(C)S(=O)(=O)Nc1cccc(C(=O)c2c[nH]c3ncc(-c4cnc(NC5CC5)nc4)cc23)c1F (stereo not shown) [Compound P-0226, N-[3-[5-[2-(cyclopropylamino)pyrimidin-5-yl]-1H-pyrrolo[2,3-b]pyridine-3-carbonyl]-2-fluoro-phenyl]butane-2-sulfonamide] | < 1 µM | < 0.1 µM
CN(C)S(=O)(=O)Nc1cccc(C(=O)c2c[nH]c3ncc(-c4ccc(C#N)nc4)cc23)c1F [Compound P-0099, 5-(6-cyano-3-pyridyl)-3-[3-(dimethylsulfamoylamino)-2-fluoro-benzoyl]-1H-pyrrolo[2,3-b]pyridine] | > 1 µM | < 0.1 µM
CN(C)S(=O)(=O)Nc1cccc(C(=O)c2c[nH]c3ncc(-c4cnc(N5CCCC5)nc4)cc23)c1F [Compound P-0107, 3-[3-(dimethylsulfamoylamino)-2-fluoro-benzoyl]-5-(2-pyrrolidin-1-ylpyrimidin-5-yl)-1H-pyrrolo[2,3-b]pyridine] | < 1 µM | < 0.1 µM
CCN(CC)c1ccc(-c2cnc3[nH]cc(C(=O)c4c(F)ccc(NS(=O)(=O)N(C)CC)c4F)c3c2)cc1 [Compound P-0308, 5-[4-(diethylamino)phenyl]-3-[3-[[ethyl(methyl)sulfamoyl]amino]-2,6-difluoro-benzoyl]-1H-pyrrolo[2,3-b]pyridine] | < 1 µM | < 0.1 µM
CN(C)S(=O)(=O)Nc1cccc(C(=O)c2c[nH]c3ncc(-c4ccc(C5CC5)nc4)cc23)c1F [Compound P-0113, 5-(6-cyclopropyl-3-pyridyl)-3-[3-(dimethylsulfamoylamino)-2-fluoro-benzoyl]-1H-pyrrolo[2,3-b]pyridine] | < 1 µM | < 0.1 µM
O=C(c1c(F)ccc(NS(=O)(=O)N2CCCC2)c1F)c1c[nH]c2ncc(-c3cnc(N4CCNCC4)nc3)cc12 [Compound P-0261, N-[2,4-difluoro-3-[5-(2-piperazin-1-ylpyrimidin-5-yl)-1H-pyrrolo[2,3-b]pyridine-3-carbonyl]phenyl]pyrrolidine-1-sulfonamide] | < 1 µM | < 0.1 µM
CCN(C)S(=O)(=O)Nc1ccc(F)c(C(=O)c2c[nH]c3ncc(-c4cnc(N5CCC(O)CC5)nc4)cc23)c1F [Compound P-0275, 3-[3-[[ethyl(methyl)sulfamoyl]amino]-2,6-difluoro-benzoyl]-5-[2-(4-hydroxy-1-piperidyl)pyrimidin-5-yl]-1H-pyrrolo[2,3-b]pyridine] | < 1 µM | < 0.1 µM

The next lines start with the values.

IC50 [1] | IC50 (B-Raf V600E) | SMILES
< 1 µM | < 0.1 µM | CCN(C)S(=O)(=O)Nc1ccc(F)c(C(=O)c2c[nH]c3ncc(-c4cnc(N5CCN(C)CC5)nc4)cc23)c1F [Compound P-0263, 3-[3-[[ethyl(methyl)sulfamoyl]amino]-2,6-difluoro-benzoyl]-5-[2-(4-methylpiperazin-1-yl)pyrimidin-5-yl]-1H-pyrrolo[2,3-b]pyridine]
> 1 µM | < 0.1 µM | CCN(C)S(=O)(=O)Nc1ccc(F)c(C(=O)c2c[nH]c3ncc(-c4cccc(C5(C#N)CC5)c4)cc23)c1F [Compound P-0276, 5-[3-(1-cyanocyclopropyl)phenyl]-3-[3-[[ethyl(methyl)sulfamoyl]amino]-2,6-difluoro-benzoyl]-1H-pyrrolo[2,3-b]pyridine]
< 1 µM | < 0.1 µM | CCN(C)S(=O)(=O)Nc1cccc(C(=O)c2c[nH]c3ncc(-c4ccc(C(C)(C)O)cc4)cc23)c1F [Compound P-0104, 3-[3-[[ethyl(methyl)sulfamoyl]amino]-2-fluoro-benzoyl]-5-[4-(1-hydroxy-1-methyl-ethyl)phenyl]-1H-pyrrolo[2,3-b]pyridine]
< 1 µM | < 0.1 µM | CCN(C)S(=O)(=O)Nc1ccc(F)c(C(=O)c2c[nH]c3ncc(-c4cncc(C(C)(C)O)c4)cc23)c1F [Compound P-0306, 3-[3-[[ethyl(methyl)sulfamoyl]amino]-2,6-difluoro-benzoyl]-5-[5-(1-hydroxy-1-methyl-ethyl)-3-pyridyl]-1H-pyrrolo[2,3-b]pyridine]
> 1 µM | > 0.1 µM | COc1ncc(-c2cnc3[nH]cc(C(=O)c4cccc(NS(=O)(=O)N5CCCC5C)c4F)c3c2)cn1 (stereo not shown) [Compound P-0074, N-[2-fluoro-3-[5-(2-methoxypyrimidin-5-yl)-1H-pyrrolo[2,3-b]pyridine-3-carbonyl]phenyl]-2-methyl-pyrrolidine-1-sulfonamide]
< 1 µM | < 0.1 µM | N#Cc1cncc(-c2cnc3[nH]cc(C(=O)c4cccc(NS(=O)(=O)N5CCCC5)c4F)c3c2)c1 [Compound P-0093, N-[3-[5-(5-cyano-3-pyridyl)-1H-pyrrolo[2,3-b]pyridine-3-carbonyl]-2-fluoro-phenyl]pyrrolidine-1-sulfonamide]
> 1 µM | < 0.1 µM | CCN(C)S(=O)(=O)Nc1cccc(C(=O)c2c[nH]c3ncc(-c4cnc(C#N)nc4)cc23)c1F [Compound P-0100, 5-(2-cyanopyrimidin-5-yl)-3-[3-[[ethyl(methyl)sulfamoyl]amino]-2-fluoro-benzoyl]-1H-pyrrolo[2,3-b]pyridine]
< 1 µM | < 0.1 µM | CN1CCN(c2cccc(-c3cnc4[nH]cc(C(=O)c5cccc(NS(=O)(=O)N6CCCC6)c5F)c4c3)n2)CC1 [Compound P-0324, N-[2-fluoro-3-[5-[6-(4-methylpiperazin-1-yl)-2-pyridyl]-1H-pyrrolo[2,3-b]pyridine-3-carbonyl]phenyl]pyrrolidine-1-sulfonamide]
< 1 µM | < 0.1 µM | CCN(C)S(=O)(=O)Nc1ccc(F)c(C(=O)c2c[nH]c3ncc(-c4ccc5nc(N)ncc5c4)cc23)c1F [Compound P-0311, 2-amino-6-[3-[3-[[ethyl(methyl)sulfamoyl]amino]-2,6-difluoro-benzoyl]-1H-pyrrolo[2,3-b]pyridin-5-yl]quinazoline]
< 1 µM | < 0.1 µM | O=C(c1cccc(NS(=O)(=O)N2CC[C@@H](F)C2)c1F)c1c[nH]c2ncc(-c3cnc(C4CC4)nc3)cc12 [Compound P-0327, (3R)—N-[3-[5-(2-cyclopropylpyrimidin-5-yl)-1H-pyrrolo[2,3-b]pyridine-3-carbonyl]-2-fluoro-phenyl]-3-fluoro-pyrrolidine-1-sulfonamide]
> 1 µM | > 0.1 µM | COc1ncc(-c2cnc3[nH]cc(C(=O)c4cccc(NS(=O)(=O)N(C)CC(C)C)c4F)c3c2)cn1 [Compound P-0072, 3-[2-fluoro-3-[[isobutyl(methyl)sulfamoyl]amino]benzoyl]-5-(2-methoxypyrimidin-5-yl)-1H-pyrrolo[2,3-b]pyridine]
> 1 µM | < 0.1 µM | O=C(c1cccc(NS(=O)(=O)N2CCCC2)c1F)c1c[nH]c2ncc(C3CC3)cc12 [Compound P-0274, N-[3-(5-cyclopropyl-1H-pyrrolo[2,3-b]pyridine-3-carbonyl)-2-fluoro-phenyl]pyrrolidine-1-sulfonamide]
